Consider seven molecules from ChEMBL document CHEMBL3137667, “[Drug-induced liver injury; fourteenth updated edition of the bibliographic database of liver injuries and related drugs]” (Gastroenterol Clin Biol, 2004).

The conditions of data set [1]: human.
For data set [2] the following is noted: human. This is another data set of the same source.
The conditions of data set [3]: human. The source holds these as a separate data set.
Data set [4] is described as follows: Comments (NB not yet translated). [column 'COMMENTAIRES' in source]. The note with it: human.
Data set [5] can be described thus: Highest frequency of moderate liver toxicity observed during clinical trials, expressed as a percentage. [column '% BIOL' in source]. The note with it: human.
The conditions of data set [6]: human. This is another data set of the same source.
Data set [7] can be described thus: Times to onset, minimal and maximal, observed in the indexed observations. [column 'DELAI' in source]. The note with it: human.
The conditions of data set [8]: human, serum, 4383 h.
The conditions of data set [9]: human. The source holds these as a separate data set.
The conditions of data set [10]: human. The source holds these as a separate data set.
The conditions of data set [11]: human, serum.
Data set [12] can be described thus: Presence of at least one case with successful reintroduction. [column 'REINT' in source]. The note with it: human.
For data set [13] the following is noted: human. This is another data set of the same source.
Data set [14] in a line: Highest frequency of acute liver toxicity observed during clinical trials, expressed as a percentage. [column '% AIGUE' in source]. The note with it: human.
For data set [15] the following is noted: human. This is another data set of the same source.
The conditions of data set [16]: human, serum. This is another data set of the same source.
For data set [17] the following is noted: human. This is another data set of the same source.
For data set [18] the following is noted: human. The source holds these as a separate data set.
The nature of data set [19]: Proposed mechanism(s) of liver damage. [column 'MEC' in source]. The note with it: human.
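Wherever Hepatotoxicity (association with vascular disease) is given: count of indexed literature references reporting vascular liver injury in humans, e.g. peliosis hepatitis, hepatic veno-occlusive disease or Budd-Chiari syndrome.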
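Wherever Hepatotoxicity (benign tumour) is given: value is a count of indexed literature references citing a benign tumour confirmed by histopathology.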
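Wherever Hepatotoxicity (choleostasis) is given: human cholestatic liver injury, shown by histopathology or by peak ALT or AST elevation over alkaline phosphatase ratio below 2, value counts indexed literature reports.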
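Wherever Hepatotoxicity (chronic liver disease) is given: chronic liver injury confirmed by histopathology or persistently raised serum aminotransferase activity beyond 6 months, value given as the count of indexed literature references.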
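Wherever Hepatotoxicity (cirrhosis) is given: value is a count of indexed literature references reporting cirrhosis confirmed by histopathology.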
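Wherever Hepatotoxicity (cytolytic) is given: human cytolytic liver injury, shown by histopathology or by a ratio above 5 of peak ALT or AST elevation to alkaline phosphatase elevation, value counts indexed references.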
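Wherever Hepatotoxicity (granulomatous hepatitis) is given: value is a count of indexed literature references reporting granulomatous liver disease confirmed by histopathology.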
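Wherever Hepatotoxicity (malignant tumour) is given: malignant tumour confirmed by histopathology, value gives the count of indexed literature references reporting it.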
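Wherever Hepatotoxicity (severe hepatitis) is given: human clinical data: severe hepatitis, meaning potentially life-threatening liver failure or clinically observed cases, the value counts how many indexed literature references report it.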
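Wherever Hepatotoxicity (steatosis) is given: steatosis confirmed by histopathology, value is the count of indexed references.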

Regarding `CN(N=O)C(=O)N[C@@H](C=O)[C@@H](O)[C@H](O)[C@H](O)CO` [STREPTOZOCIN], the “Hepatotoxicity (choleostasis)” value in data set [1] is given as 0. Further, the “Hepatotoxicity (severe hepatitis)” value in data set [2] is on record as 2. The “Hepatotoxicity (granulomatous hepatitis)” value in [3] is 0. Moreover, the “Hepatotoxicity (comment)” value in [4] is listed as “CHOLANGITE/IAH”. The results for the “Hepatotoxicity (moderate)” value in data set [5] and in data set [11] were 67% and 9, respectively. Also, in [6], the “Hepatotoxicity (steatosis)” value is 0. The “Hepatotoxicity (time to onset)” value in data set [7] is given as 4 days - 6 weeks. Further, the “Hepatotoxicity (chronic liver disease)” value in data set [8] was determined as 0. Moreover, the “Hepatotoxicity (benign tumour)” value in [9] was 0. The “Hepatotoxicity (animal toxicity known)” value in [10] is “yes”. Further, the “Hepatotoxicity (successful reintroduction)” value in [12] was “yes”. Besides, the “Hepatotoxicity (cirrhosis)” value in data set [13] worked out at 0. For the same molecule, the “Hepatotoxicity (acute)” value amounted to 35.3% in data set [14] and 3 in [16]. Also, the “Hepatotoxicity (malignant tumour)” value in data set [15] is 0. In [17], the “Hepatotoxicity (association with vascular disease)” value was 0. The “Hepatotoxicity (cytolytic)” value in [18] was determined as 1.
On to `Cc1nnc2n1-c1ccc(Cl)cc1C(c1ccccc1)=NC2` [ALPRAZOLAM], for which the “Hepatotoxicity (choleostasis)” value in [1] was 1. For the same molecule, the “Hepatotoxicity (severe hepatitis)” value in data set [2] worked out at 1. The “Hepatotoxicity (granulomatous hepatitis)” value in data set [3] came out at 0. In [19], the “Hepatotoxicity (mechanism)” value is “Dose-dependant”. Moreover, the “Hepatotoxicity (moderate)” value in data set [5] came to 8%; in data set [11] it was 3. Besides, the “Hepatotoxicity (steatosis)” value in data set [6] came out at 0. In addition, the “Hepatotoxicity (time to onset)” value in data set [7] was determined as 3 days - 3 weeks. Besides, the “Hepatotoxicity (chronic liver disease)” value in data set [8] came to 0. For the same molecule, the “Hepatotoxicity (benign tumour)” value in data set [9] was 0. In [10], the “Hepatotoxicity (animal toxicity known)” value is recorded as “A”. Moreover, the “Hepatotoxicity (successful reintroduction)” value in [12] was “yes”. In [13], the “Hepatotoxicity (cirrhosis)” value worked out at 0. In addition, the “Hepatotoxicity (acute)” value is recorded as 0.4% in data set [14] and 4 in [16]. Further, the “Hepatotoxicity (malignant tumour)” value in data set [15] stood at 0. The “Hepatotoxicity (association with vascular disease)” value in [17] stood at 1. Besides, the “Hepatotoxicity (cytolytic)” value in data set [18] is 2.
`C[C@@H]1[C@H](O)[C@@H](C)/C=C/C=C/C=C/C=C/C=C/C=C/C=C/[C@H](O[C@@H]2O[C@H](C)[C@@H](O)[C@H](N)[C@@H]2O)C[C@@H]2O[C@](O)(C[C@@H](O)C[C@@H](O)[C@H](O)CC[C@@H](O)C[C@@H](O)CC(=O)O[C@H]1C)C[C@H](O)[C@H]2C(=O)O` [AMPHOTERICIN B]: the “Hepatotoxicity (choleostasis)” value in data set [1] was found to be 7. Further, in data set [2], the “Hepatotoxicity (severe hepatitis)” value is recorded as 4. Besides, the “Hepatotoxicity (granulomatous hepatitis)” value in data set [3] worked out at 0. The “Hepatotoxicity (mechanism)” value in data set [19] is recorded as “Dose-dependant”. The “Hepatotoxicity (moderate)” value was 91.7% in [5] and 28 in [11]. The “Hepatotoxicity (steatosis)” value in data set [6] turned out to be 2. Also, the “Hepatotoxicity (time to onset)” value in [7] stood at 2 days - 4 months. The “Hepatotoxicity (chronic liver disease)” value in [8] stood at 0. In addition, in data set [9], the “Hepatotoxicity (benign tumour)” value was 0. The “Hepatotoxicity (animal toxicity known)” value in data set [10] is “yes”. In data set [12], the “Hepatotoxicity (successful reintroduction)” value is listed as “yes”. The “Hepatotoxicity (cirrhosis)” value in [13] was 0. Further, the “Hepatotoxicity (acute)” value came out at 50% in [14] and 15 in data set [16]. In addition, the “Hepatotoxicity (malignant tumour)” value in [15] was found to be 0. Also, in data set [17], the “Hepatotoxicity (association with vascular disease)” value was 0. Further, the “Hepatotoxicity (cytolytic)” value in data set [18] is recorded as 6.
For `NC(N)=Nc1nc(CSCCN/C=N/S(=O)(=O)c2ccc(Br)cc2)cs1` [EBROTIDINE], the “Hepatotoxicity (choleostasis)” value in data set [1] stood at 0. Besides, in data set [2], the “Hepatotoxicity (severe hepatitis)” value amounted to 1. The “Hepatotoxicity (granulomatous hepatitis)” value in [3] was determined as 0. Moreover, in data set [4], the “Hepatotoxicity (comment)” value is on record as “AC_ANTI-ML”. Besides, the “Hepatotoxicity (moderate)” value in data set [5] is on record as 0%; in data set [11], 0. The “Hepatotoxicity (steatosis)” value in data set [6] amounted to 0. In addition, the “Hepatotoxicity (time to onset)” value in data set [7] worked out at 2 weeks - 6 months. Besides, the “Hepatotoxicity (chronic liver disease)” value in data set [8] was determined as 1. Also, the “Hepatotoxicity (benign tumour)” value in data set [9] is 0. Further, in [10], the “Hepatotoxicity (animal toxicity known)” value is on record as “yes”. For the same molecule, the “Hepatotoxicity (successful reintroduction)” value in data set [12] is “yes”. Besides, in data set [13], the “Hepatotoxicity (cirrhosis)” value was found to be 1. The “Hepatotoxicity (acute)” value in [14] came to 0%; in data set [16], 2. Also, the “Hepatotoxicity (malignant tumour)” value in data set [15] is reported as 0. In data set [17], the “Hepatotoxicity (association with vascular disease)” value came out at 0. For the same molecule, the “Hepatotoxicity (cytolytic)” value in [18] is given as 2.
On to `COc1ccc2c(c1)c(CC(=O)O)c(C)n2C(=O)c1ccc(Cl)cc1` [INDOMETHACIN], for which the “Hepatotoxicity (choleostasis)” value in [1] was found to be 10. The “Hepatotoxicity (severe hepatitis)” value in data set [2] is reported as 5. Besides, the “Hepatotoxicity (granulomatous hepatitis)” value in data set [3] is on record as 0. The “Hepatotoxicity (mechanism)” value in data set [19] is “Allergic, Reactive metabolite”. The “Hepatotoxicity (moderate)” value in data set [5] was 25%; in data set [11] it was 7. The “Hepatotoxicity (steatosis)” value in [6] was found to be 0. Also, in data set [7], the “Hepatotoxicity (time to onset)” value stood at 3 days - 10 years. The “Hepatotoxicity (chronic liver disease)” value in data set [8] is listed as 0. Further, the “Hepatotoxicity (benign tumour)” value in [9] is recorded as 0. Also, in data set [10], the “Hepatotoxicity (animal toxicity known)” value was “yes”. In addition, the “Hepatotoxicity (successful reintroduction)” value in [12] was “yes”. In addition, the “Hepatotoxicity (cirrhosis)” value in data set [13] came out at 0. Besides, the “Hepatotoxicity (acute)” value in data set [14] amounted to 1%; in data set [16] it was 17. For the same molecule, in data set [15], the “Hepatotoxicity (malignant tumour)” value is 0. Also, in data set [17], the “Hepatotoxicity (association with vascular disease)” value worked out at 0. For the same molecule, the “Hepatotoxicity (cytolytic)” value in [18] was 8.
`C[C@H](CCC(=O)O)[C@H]1CC[C@H]2[C@@H]3[C@H](O)C[C@@H]4C[C@H](O)CC[C@]4(C)[C@H]3CC[C@]12C` [CHENODIOL]: the “Hepatotoxicity (choleostasis)” value in data set [1] amounted to 2. Further, in data set [2], the “Hepatotoxicity (severe hepatitis)” value is recorded as 0. Besides, the “Hepatotoxicity (granulomatous hepatitis)” value in [3] is on record as 0. In addition, the “Hepatotoxicity (mechanism)” value in data set [19] is given as “Dose-dependant”. For the same molecule, the “Hepatotoxicity (moderate)” value in data set [5] is 37%; in data set [11], 22. The “Hepatotoxicity (steatosis)” value in data set [6] stood at 0. Also, the “Hepatotoxicity (time to onset)” value in data set [7] is on record as 3 weeks - 3 months. The “Hepatotoxicity (chronic liver disease)” value in [8] is reported as 1. Moreover, the “Hepatotoxicity (benign tumour)” value in [9] worked out at 0. Also, the “Hepatotoxicity (animal toxicity known)” value in data set [10] is on record as “yes”. Moreover, the “Hepatotoxicity (successful reintroduction)” value in data set [12] is “yes”. For the same molecule, the “Hepatotoxicity (cirrhosis)” value in [13] came to 0. The entries for the “Hepatotoxicity (acute)” value in data set [14] and in data set [16] were 3% and 5, respectively. Also, in [15], the “Hepatotoxicity (malignant tumour)” value is reported as 0. In addition, the “Hepatotoxicity (association with vascular disease)” value in [17] is on record as 0. Also, in data set [18], the “Hepatotoxicity (cytolytic)” value is given as 3.
`Cc1ncc([N+](=O)[O-])n1CCO` [METRONIDAZOLE]: in [1], the “Hepatotoxicity (choleostasis)” value was determined as 2. In data set [2] (Liver), the “Hepatotoxicity (severe hepatitis)” value was found to be 1. In addition, the “Hepatotoxicity (granulomatous hepatitis)” value in [3] was found to be 0. Moreover, the “Hepatotoxicity (mechanism)” value in data set [19] is “Dose-dependant”. Further, the “Hepatotoxicity (moderate)” value in data set [5] (Liver) was 25%; in [11], 4. For the same molecule, the “Hepatotoxicity (steatosis)” value in [6] is 0. Besides, the “Hepatotoxicity (time to onset)” value in [7] was 1 day - 2.3 months. The “Hepatotoxicity (chronic liver disease)” value in [8] was determined as 0. The “Hepatotoxicity (benign tumour)” value in data set [9] was 0. Besides, the “Hepatotoxicity (animal toxicity known)” value in data set [10] is “yes”. In addition, in [12], the “Hepatotoxicity (successful reintroduction)” value is “yes”. Besides, the “Hepatotoxicity (cirrhosis)” value in data set [13] amounted to 0. Besides, the “Hepatotoxicity (acute)” value is recorded as 0% in data set [14] (Liver) and 10 in [16]. Also, the “Hepatotoxicity (malignant tumour)” value in data set [15] is 0. Also, in [17], the “Hepatotoxicity (association with vascular disease)” value was found to be 0. Moreover, in [18], the “Hepatotoxicity (cytolytic)” value came out at 8.
